Laboratory results published in the supplement of paper PMC10307832.

What was measured:
Test in all cases: relative viability (nuclei count vs DMSO), 5 days (fraction); higher = more cells survive
[1] = compound: CC1=C(C(=O)N2C=CSC2=N1)CCN3CCC(=C(C4=CC=CC=C4)C5=CC=C(C=C5)F)CC3
Method in brief: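 Hoechst staining, done together with fixation and permeabilisation, marked nuclei for 4× imaging and MetaXpress counting. This followed 5 days without medium change after lung cancer cell lines, kept overnight at 37 °C in 1536-well plates, were pinned with five library-drug doses (not always all listed) spaced by √10 on vehicle-anchored plates. Viability is the ratio of treated-well to vehicle-well nuclei, expressed as a median across plates. Plates passed only at control CV below 25% with at least one doubling.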

[2] = compound: CC1=C(C(=O)N2C=CSC2=N1)CCN3CCC(=C(C4=CC=CC=C4)C5=CC=C(C=C5)F)CC3 + O=C(CCCCCCC(=O)Nc1ccccc1)NO [Vorinostat] (partner 1 µM)
Method in brief: (§1)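 Relative viability equals treated-well nuclei counts divided by vehicle-well nuclei counts. Counts came from 4× images of lung cancer cell lines grown in 1536-well plates for 5 days after pin-tool dosing on the day after seeding. Dosing used one drug alone or a fixed anchor-drug dose plus five library-drug doses (not always all listed) in √10 steps, and values are medians of duplicate plates.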

[3] = compound: CC1=C(C(=O)N2C=CSC2=N1)CCN3CCC(=C(C4=CC=CC=C4)C5=CC=C(C=C5)F)CC3 + CC(=O)c1c(C)c2cnc(Nc3ccc(N4CCNCC4)cn3)nc2n(C2CCCC2)c1=O [Palbociclib] (partner 0.5 µM)
Method in brief: as §1

[4] = compound: CC1=C(C(=O)N2C=CSC2=N1)CCN3CCC(=C(C4=CC=CC=C4)C5=CC=C(C=C5)F)CC3 + CC(=O)Nc1cccc(-n2c(=O)n(C3CC3)c(=O)c3c(Nc4ccc(I)cc4F)n(C)c(=O)c(C)c32)c1 [Trametinib] (partner 0.02 µM)
Method in brief: as §1

[5] = compound: CC1=C(C(=O)N2C=CSC2=N1)CCN3CCC(=C(C4=CC=CC=C4)C5=CC=C(C=C5)F)CC3 + Cc1cc(Nc2cc(N3CCN(C)CC3)nc(Sc3ccc(NC(=O)C4CC4)cc3)n2)n[nH]1 [Tozasertib] (partner 0.1 µM)
Method in brief: as §1

[6] = compound: CC1=C(C(=O)N2C=CSC2=N1)CCN3CCC(=C(C4=CC=CC=C4)C5=CC=C(C=C5)F)CC3 + NC(=O)Nc1cc(-c2cccc(F)c2)sc1C(=O)N[C@H]1CCCNC1 [AZD7762] (partner 0.2 µM)
Method in brief: as §1

[7] = compound: CC1=C(C(=O)N2C=CSC2=N1)CCN3CCC(=C(C4=CC=CC=C4)C5=CC=C(C=C5)F)CC3 + CCNC(=O)c1noc(-c2cc(C(C)C)c(O)cc2O)c1-c1ccc(CN2CCOCC2)cc1 [Luminespib] (partner 0.01 µM)
Method in brief: as §1

[8] = compound: CC1=C(C(=O)N2C=CSC2=N1)CCN3CCC(=C(C4=CC=CC=C4)C5=CC=C(C=C5)F)CC3 + COc1cccc2cc(-c3nc([C@H]4CC[C@H](C(=O)O)CC4)n4ncnc(N)c34)[nH]c12 [OSI-027] (partner 0.5 µM)
Method in brief: as §1

[9] = compound: CC1=C(C(=O)N2C=CSC2=N1)CCN3CCC(=C(C4=CC=CC=C4)C5=CC=C(C=C5)F)CC3 + O=C(c1cc(Cc2n[nH]c(=O)c3ccccc23)ccc1F)N1CCN(C(=O)C2CC2)CC1 [Olaparib] (partner 8 µM)
Method in brief: as §1

[10] = compound: CC1=C(C(=O)N2C=CSC2=N1)CCN3CCC(=C(C4=CC=CC=C4)C5=CC=C(C=C5)F)CC3 + Nc1nc2[nH]cc(CCc3ccc(C(=O)N[C@@H](CCC(=O)O)C(=O)O)cc3)c2c(=O)[nH]1 [Pemetrexed] (partner 0.2 µM)
Method in brief: as §1

[11] = compound: CC1=C(C(=O)N2C=CSC2=N1)CCN3CCC(=C(C4=CC=CC=C4)C5=CC=C(C=C5)F)CC3 + COc1cc2c(Oc3ccc(NC(=O)C4(C(=O)Nc5ccc(F)cc5)CC4)cc3F)ccnc2cc1OCCCN1CCOCC1 [Foretinib] (partner 0.25 µM)
Method in brief: as §1

[12] = compound: CC1=C(C(=O)N2C=CSC2=N1)CCN3CCC(=C(C4=CC=CC=C4)C5=CC=C(C=C5)F)CC3 + N=C(N)NC(=N)NCCc1ccccc1 [Phenformin] (partner 250 µM)
Method in brief: as §1

[13] = compound: CC1=C(C(=O)N2C=CSC2=N1)CCN3CCC(=C(C4=CC=CC=C4)C5=CC=C(C=C5)F)CC3 + Nc1ncn([C@H]2C[C@H](O)[C@@H](CO)O2)c(=O)n1 [Decitabine] (partner 2 µM)
Method in brief: as §1

[14] = compound: CC1=C(C(=O)N2C=CSC2=N1)CCN3CCC(=C(C4=CC=CC=C4)C5=CC=C(C=C5)F)CC3 + Cc1nc(Nc2ncc(C(=O)Nc3c(C)cccc3Cl)s2)cc(N2CCN(CCO)CC2)n1 [Dasatinib] (partner 0.075 µM)
Method in brief: as §1

## NCI-H2342
[1]; 0.08 µM
  relative viability: 0.761
[1]; 0.253 µM
  relative viability: 1.03
[1]; 0.8 µM
  relative viability: 0.949
[1]; 2.53 µM
  relative viability: 1.02
[1]; 8 µM
  relative viability: 0.792
[2]; first compound 0.08 µM
  relative viability: 0.63
[2]; first compound 0.253 µM
  relative viability: 0.882
[2]; first compound 0.8 µM
  relative viability: 0.778
[2]; first compound 2.53 µM
  relative viability: 0.795
[2]; first compound 8 µM
  relative viability: 0.6
[3]; first compound 0.08 µM
  relative viability: 0.48
[3]; first compound 0.253 µM
  relative viability: 0.487
[3]; first compound 0.8 µM
  relative viability: 0.548
[3]; first compound 2.53 µM
  relative viability: 0.519
[3]; first compound 8 µM
  relative viability: 0.528
[4]; first compound 0.08 µM
  relative viability: 0.667
[4]; first compound 0.253 µM
  relative viability: 0.82
[4]; first compound 0.8 µM
  relative viability: 0.791
[4]; first compound 2.53 µM
  relative viability: 0.886
[4]; first compound 8 µM
  relative viability: 0.769
[5]; first compound 0.08 µM
  relative viability: 0.559
[5]; first compound 0.253 µM
  relative viability: 0.492
[5]; first compound 0.8 µM
  relative viability: 0.585
[5]; first compound 2.53 µM
  relative viability: 0.504
[5]; first compound 8 µM
  relative viability: 0.431
[6]; first compound 0.08 µM
  relative viability: 0.382
[6]; first compound 0.253 µM
  relative viability: 0.516
[6]; first compound 0.8 µM
  relative viability: 0.436
[6]; first compound 2.53 µM
  relative viability: 0.566
[6]; first compound 8 µM
  relative viability: 0.433
[7]; first compound 0.08 µM
  relative viability: 0.657
[7]; first compound 0.253 µM
  relative viability: 0.791
[7]; first compound 0.8 µM
  relative viability: 0.789
[7]; first compound 2.53 µM
  relative viability: 0.66
[7]; first compound 8 µM
  relative viability: 0.619
[8]; first compound 0.08 µM
  relative viability: 0.567
[8]; first compound 0.253 µM
  relative viability: 0.617
[8]; first compound 0.8 µM
  relative viability: 0.636
[8]; first compound 2.53 µM
  relative viability: 0.602
[8]; first compound 8 µM
  relative viability: 0.622
[9]; first compound 0.08 µM
  relative viability: 0.38
[9]; first compound 0.253 µM
  relative viability: 0.44
[9]; first compound 0.8 µM
  relative viability: 0.435
[9]; first compound 2.53 µM
  relative viability: 0.426
[9]; first compound 8 µM
  relative viability: 0.43
[10]; first compound 0.08 µM
  relative viability: 0.657
[10]; first compound 0.253 µM
  relative viability: 0.821
[10]; first compound 0.8 µM
  relative viability: 0.76
[10]; first compound 2.53 µM
  relative viability: 0.818
[10]; first compound 8 µM
  relative viability: 0.634
[11]; first compound 0.08 µM
  relative viability: 0.884
[11]; first compound 0.253 µM
  relative viability: 1.02
[11]; first compound 0.8 µM
  relative viability: 0.948
[11]; first compound 2.53 µM
  relative viability: 1.09
[11]; first compound 8 µM
  relative viability: 0.857
[12]; first compound 0.08 µM
  relative viability: 0.557
[12]; first compound 0.253 µM
  relative viability: 0.605
[12]; first compound 0.8 µM
  relative viability: 0.52
[12]; first compound 2.53 µM
  relative viability: 0.597
[12]; first compound 8 µM
  relative viability: 0.523
[13]; first compound 0.08 µM
  relative viability: 0.547
[13]; first compound 0.253 µM
  relative viability: 0.809
[13]; first compound 0.8 µM
  relative viability: 0.697
[13]; first compound 2.53 µM
  relative viability: 0.834
[13]; first compound 8 µM
  relative viability: 0.645
[14]; first compound 0.08 µM
  relative viability: 0.255
[14]; first compound 0.253 µM
  relative viability: 0.304
[14]; first compound 0.8 µM
  relative viability: 0.291
[14]; first compound 2.53 µM
  relative viability: 0.306
[14]; first compound 8 µM
  relative viability: 0.247

## NCI-H1623
[1]; 0.08 µM
  relative viability: 0.887
[1]; 0.253 µM
  relative viability: 1.03
[1]; 0.8 µM
  relative viability: 1.02
[1]; 2.53 µM
  relative viability: 0.96
[1]; 8 µM
  relative viability: 0.87
[5]; first compound 0.08 µM
  relative viability: 0.466
[5]; first compound 0.253 µM
  relative viability: 0.434
[5]; first compound 0.8 µM
  relative viability: 0.446
[5]; first compound 2.53 µM
  relative viability: 0.475
[5]; first compound 8 µM
  relative viability: 0.419
[7]; first compound 0.08 µM
  relative viability: 0.563
[7]; first compound 0.253 µM
  relative viability: 0.631
[7]; first compound 0.8 µM
  relative viability: 0.521
[7]; first compound 2.53 µM
  relative viability: 0.472
[7]; first compound 8 µM
  relative viability: 0.35
[8]; first compound 0.08 µM
  relative viability: 0.416
[8]; first compound 0.253 µM
  relative viability: 0.411
[8]; first compound 0.8 µM
  relative viability: 0.431
[8]; first compound 2.53 µM
  relative viability: 0.436
[8]; first compound 8 µM
  relative viability: 0.433
[11]; first compound 0.08 µM
  relative viability: 0.632
[11]; first compound 0.253 µM
  relative viability: 0.968
[11]; first compound 0.8 µM
  relative viability: 0.886
[11]; first compound 2.53 µM
  relative viability: 0.819
[11]; first compound 8 µM
  relative viability: 0.826
[12]; first compound 0.08 µM
  relative viability: 0.706
[12]; first compound 0.253 µM
  relative viability: 0.618
[12]; first compound 0.8 µM
  relative viability: 0.607
[12]; first compound 2.53 µM
  relative viability: 0.564
[12]; first compound 8 µM
  relative viability: 0.594
[14]; first compound 0.08 µM
  relative viability: 0.473
[14]; first compound 0.253 µM
  relative viability: 0.57
[14]; first compound 0.8 µM
  relative viability: 0.5
[14]; first compound 2.53 µM
  relative viability: 0.536
[14]; first compound 8 µM
  relative viability: 0.549
